Data on 2 compounds can be found in paper PMC3299299, “Recombinant Expression and Characterization of Human and Murine ACE2: Species-Specific Activation of the Alternative Renin-Angiotensin-System” (International Journal of Hypertension, 2012).

Common to all, as to format: biochemical
The test system of data set [1] is human RAS in blood plasma. As to the kind of experiment: Ex vivo incubation of renin-spiked human plasma, RAS-Fingerprinting by LC-MS/MS. The note with it: human plasma + 100 pg/mL recombinant human renin, 10 μM Lisinopril present, without or with 5 μg/mL enzyme, 10 min 37°C (Fig 3b).
Procedure: Anticoagulated blood was collected from healthy volunteers, and plasma was separated by 10 minutes centrifugation at 3000 RCF. […] After 10 minutes of incubation at 37°C, in the presence or absence of Lisinopril (Sigma), samples were chilled on ice and immediately subjected to LC-MS/MS analysis.
Plasma samples were spiked with 100 pg/mL stable-isotope-labeled internal standards and subjected to solid-phase extraction using Sep-Pak cartridges (Waters) according to manufacturers protocol. Following elution and solvent evaporation, samples were reconstituted in 50 μL 50% acetonitrile/0.1% formic acid and subjected to LC-MS/MS analysis using a reversed-phase analytical column (Luna C18, Phenomenex) using a gradient ranging from 10% acetonitrile/0.1% formic acid to 70% acetonitrile/0.1% formic acid in 9 minutes. The eluate was analyzed in line with a QTRAP-4000 mass spectrometer (AB Sciex) operated in the MRM mode using dwell times of 25 msec at a cone voltage of 4000 volts and a source temperature of 300°C. For each peptide and corresponding internal standards, two different mass transitions were measured. Angiotensin peptide concentrations were calculated by relating endogenous peptide signals to internal standard signals provided that integrated signals achieved a signal-to-noise ratio above 10.
RAS-Fingerprints were measured by LC-MS/MS as indicated in Section 2. Samples were incubated in the absence (a) or presence (b) of 10 μM of the ACE inhibitor Lisinopril. In this figure, the diameter of the spheres reflects the concentration of the respective peptide metabolite, which is also given in pg/mL next to each individual sphere. 0 pg/mL indicates concentrations below quantification limits, which are defined by a signal-to-noise ratio below 10. Furthermore, the amino acid sequence of each angiotensin metabolite is schematically given in brackets beside the corresponding sphere. The sequence annotation is based on the decapeptide Angiotensin I (1–10) which is N- or C-terminally cleaved by the indicated proteases. […]
The subject of the next data set is RAS in whole blood. As to the kind of experiment: Ex vivo incubation of whole blood, RAS-Fingerprinting. The note with it: whole blood instead of plasma, control and rhACE2 samples (Supplementary Figure 1). The text has this:
These findings were in contrast to previously published reports on Ang 1–7 accumulating effects of ACE inhibitors in vivo [20, 21]. In our experimental setting, we employed heparinized blood plasma as a sample matrix for ACE2 characterization which is reflecting in vivo conditions very well. However, plasma lacks all blood cells which might carry receptors and angiotensin peptide converting enzymes being able to affect angiotensin peptide concentrations in vivo. […] As neutral endopeptidase (NEP, CD10) is known to be expressed on the cell surface of leukocytes and that it is able to convert Ang 1–10 and Ang 1–9 to Ang 1–7 in vitro [18], NEP is very likely to be responsible for Ang 1–7 accumulation also in vivo, especially in the presence of ACE inhibitors which block the formation of Ang 1–8 which is an important precursor for Ang 1–7.

The test system of another data set is Ang 1–8. As to the kind of experiment: In vitro kinetic assay, Ang 1–8 cleavage to Ang 1–7, HPLC quantification. The note with it: ratio of k cat of the same enzyme for the two substrates. As for the experimental part: (§1) Enzyme reactions were started by adding a defined amount of enzyme to substrate dilutions in MES-buffer (50 mM MES, 300 mM NaCl, 10 μM ZnCl2, 0.01% Brij-35, pH 6.5) which were previously equilibrated at 37°C. Aliquots of the reaction mixes were taken every 10 minutes and stopped by addition of 0.5 M EDTA to a final concentration of 100 mM before HPLC-based quantification of peptides.
(§2) The concentration of peptides in enzymatic reactions was quantified by detection of peaks eluted from the HPLC column using an in-line diode array detector. Chromatography was performed by running a gradient on a reversed-phase matrix (Source 5RPC, 4.6×150 mm, 5 μm) with 0.08% H3PO4 in water as mobile phase A and 40% acetonitrile in water and 0.08% H3PO4 as mobile phase B. The optical density at 280 nm was recorded inline for all eluting peaks, and peptide concentrations were calculated via calibration curves for each individual peptide.
The turnover rates for natural ACE2 substrates were determined by in vitro incubation with excess amounts of substrate followed by reversed-phase HPLC analysis. […] The resulting time courses are shown in the graphs. […] Each time point was analyzed in true triplicates and standard deviations are given in the graphs together with linear regressions of the measured values.

The test system of the next data set is Ang 1–10. The data set is described as follows: In vitro kinetic assay, Ang 1–10 cleavage to Ang 1–9, HPLC quantification. The note with it: […] enzyme, 65 μM Ang 1–10, MES buffer pH 6.5, 37°C, HPLC; mean of substrate degradation and product formation rates related to enzyme concentration; triplicates. The method, then: as §1, §2
The turnover rates for natural ACE2 substrates were determined by in vitro incubation with excess amounts of substrate followed by reversed-phase HPLC analysis. […] Each time point was analyzed in true triplicates and standard deviations are given in the graphs together with linear regressions of the measured values.

Consider `NCCCC[C@H](N[C@@H](CCc1ccccc1)C(=O)O)C(=O)N1CCC[C@H]1C(=O)O` [Lisinopril], for which the “Ang (1–10) concentration in plasma” value in data set [1] (0 = below quantification limit) is 710 pg/mL. Also, the “Ang (1–7) concentration in plasma” value in data set [1] (0 = below quantification limit (2 pg/mL plasma)) was below 2 pg/mL. Further, in the data set with RAS in whole blood, the “Ang 1–7 concentration in whole blood in response to Lisinopril” value is on record as “increase of Ang 1–7 concentrations”.

For the compound “rhACE2: extracellular domain of human ACE2 recombinantly expressed in CHO cells”, the “turnover number for Ang 1–8 compared to Ang 1–10” value with Ang 1–8 turned out to be 42 fold. Besides, the “k cat, Ang 1–10 ≥ Ang 1–9” value in the data set on Ang 1–10 stood at 0.018 s⁻¹.
